Measured values: patent US7247611B2, “Compositions and methods for promoting internalization and degradation of urokinase-type plasminogen activator” (The Trustees of the University of Pennsylvania, priority 1997, dated 2007)
“Also recorded” adds a separate entry of the source.

Key:
[1] = system: LM-TK^− cells (α2MR^+/LRP, uPAR^−); experiment: Ligand binding assay: binding of 125I-labeled scuPA, tcuPA and their suPAR complexes to LM-TK^− cells; type: cell-based; conditions: for promotion of scuPA binding to LM-TK^− cells: 1B
Description: Briefly, LM-TK^− cells were suspended in DMEM (GIBCO, Grand Island, N.Y.) containing 10% (v/v) fetal calf serum and were grown to confluence at 37° C. overnight in 96-well Falcon™ multiwell tissue culture dishes (Becton Dickinson, Lincoln Park, N.J.). The cells were chilled for one hour on ice and were washed twice with chilled binding buffer. ^125I-labeled ligands, with or without 50-fold molar excess of non-labeled ligands, were added to the cells in the presence or absence of 0-300 micromolar peptide, and the cell cultures were incubated for two hours at 4° C. The cells were washed four times with binding buffer, solubilized in 0.1 N NaOH, and the cell extract was assessed for radioactivity. […] Assays were repeated at least three times, and data presented herein represent the mean and standard deviation.

[2] = system: purified α2MR/LRP; experiment: Solid phase binding assay of 125I-labeled ligands to immobilized purified α2MR/LRP
Description: To measure the binding of labeled ligands to α2MR/LRP, a 96-well microtiter plate was incubated with 3 micrograms per milliliter purified α2MR/LRP or with 3 micrograms per milliliter BSA in TBS containing 4 millimolar Ca^2+ overnight at 4° C. The buffer was removed, and the non-reacted sites on the plate were blocked using a blocking solution comprising TBS, 4 millimolar Ca^2+, 0.05% (v/v) Tween-20, and 3% (w/v) BSA. The wells of the plate were filled with the blocking solution and incubated for one hour at 4° C. Next, the blocking solution was removed, each well was filled with a solution comprising blocking solution and 0 or 200 nanomolar rRAP, and the plate was incubated at 4° C. for another hour. Binding of ^125I-labeled ligands to immobilized α2MR/LRP was determined as described (Higazi et al., 1996, Blood 88:542-551; Nykjaer et al., 1993, J. Biol. Chem. 268:15048-15055).

[3] = system: LM-TK^− cells; experiment: Internalization and degradation of 125I-scuPA by LM-TK^− cells; type: cell-based
Description: LM-TK^− cells were grown overnight at 37° C. to confluence in 48-well Falcon™ Multiwell tissue culture dishes (Becton Dickinson, Lincoln Park, N.J.). Cells were prechilled on ice for one hour, washed twice with a buffer comprising TBS, 4 millimolar Ca^2+, and 3% (w/v) BSA, and incubated for one hour at room temperature with the same buffer or with buffer supplemented with either 400 nanomolar rRAP or 100 micrograms per milliliter IgG anti-α2MR/LRP. The buffer was removed, ^125I -scuPA was added to the cells, and the cells were incubated for two hours at 4° C. in the presence of 0-300 micromolar peptide, 0 or 400 nanomolar rRAP, and 0 or 100 micrograms per milliliter anti-α2MR/LRP. Unbound ligand was removed and cells were washed five times with the buffer. DMEM comprising 4 millimolar Ca^2+, 0 or 400 nanomolar rRAP, and 0 or 100 micrograms per milliliter anti-α2MR/LRP was added to the cells, and the cells were incubated for eighteen hours at 37° C. […] Briefly, to measure internalization, cells were washed twice with the buffer, a solution comprising 50 millimolar glycine 150 millimolar NaCl at pH 3.0 was added to the cells, and the cells were incubated for fifteen minutes at 4° C. to dissociate cell surface-bound ligands. […] Radioactivity in the cell extract was assessed.

[4] = target: scuPA-uPAR complex (Homo sapiens, UniProt P00749); experiment: scuPA-uPAR complex formation; type: binding
[5] = target: T1, PAI-1 (Homo sapiens, UniProt P05121); experiment: Assessment of plasminogen activator activity (inhibition of PAI-1 activity, tcuPA as substrate of PAI-1); type: biochemical; conditions: 5 nanomolar tcuPA, 200 micromolar peptide, 25 nanomolar PAI-1; FIG. 4
T1 construct: purchased American Diagnostica, Inc. (Greenwich, Conn.)
Description: A solution comprising 5 nanomolar tcuPA, 0 or 200 micromolar peptide EEIIMD (SEQ ID NO: 3), and 0 or 200 micromolar peptide REIIMD (SEQ ID NO: 4) was incubated for thirty minutes. The solution was then added to a reaction mixture comprising 25 nanomolar PAI-1, 50 nanomolar Glu-plasminogen, and 50 micromolar chromogenic substrate, and the optical density of the mixture at 405 nanometers was measured continuously, as described (Higazi et al., 1996, Blood 87:3545-3549).

## REIIMD [hexapeptide, amino terminal Glu of EEIIMD substituted by Arg]
[1]; FIG. 1A
  promotion of scuPA binding to LM-TK^− cells: nearly as potent a promoter of scuPA binding to LM-TK^− cells as was peptide EEIIMD

## rRAP: recombinant 39 kilodalton α2MR/LRP. (receptor-associated protein), inhibits ligand binding to α2MR/LRP [reference compound]
[1]; 400 nanomolar rRAP, FIG. 5B
  inhibition of EEIIMD-promoted binding of scuPA to LM-TK^− cells: approximately 70%
[2]; 200 nanomolar rRAP, FIG. 5A
  effect on EEIIMD-promoted binding of scuPA to purified α2MR/LRP: inhibited
[3]; 400 nanomolar rRAP
  inhibition of EEIIMD-promoted scuPA internalization and degradation by LM-TK^− cells: approximately 70%

## EEIIMD [hexapeptide homologous with amino acids 350-355 of PAI-1]
[1]
  effect on binding of tcuPA to LM-TK^− cells: failed to stimulate binding of tcuPA; also recorded: had no effect
[1]; FIG. 1A
  promotion of scuPA binding to LM-TK^− cells: promoted binding
[1]; FIG. 1B
  peptide concentration giving near-maximal effect on scuPA binding to LM-TK^− cells: approximately 300 micromolar
[1]; FIG. 3
  effect on binding of the scuPA-suPAR complex to LM-TK^− cells: minimal increase
  effect on binding of the tcuPA-suPAR complex to LM-TK^− cells: had no effect
[1]; presence versus absence of the peptide, two hours at 4° C.
  increase in the value of Bmax for scuPA binding to LM-TK^− cells: four-fold
[1]; read-out: peptide concentration for half maximal stimulation of scuPA binding to LM-TK^− cells, FIG. 1B
  EC50: ~50 µM
[1]; scuPA preincubated with PAI-1, FIG. 2
  scuPA-binding-promoting effect in the presence of PAI-1: identical to the effect observed in the absence of PAI-1
[2]
  effect on binding of tcuPA to purified α2MR/LRP: had no effect
  effect on binding of the scuPA-suPAR complex to α2MR/LRP: had no effect
[2]; FIG. 5A
  effect on binding of scuPA to purified α2MR/LRP: promoted binding of scuPA to purified α2MR/LRP
[4]
  effect on scuPA-uPAR complex formation: did not affect
[5]
  inhibition of PAI-1 activity: inhibits PAI-1 activity; also recorded: competitive inhibitor of PAI-1 binding to tcuPA
[3]; eighteen hours at 37° C., FIG. 6
  effect on internalization and degradation of scuPA by LM-TK^− cells: promoted both internalization and degradation; also recorded: accelerated the rate of internalization and degradation

## EEIIMR [hexapeptide, carboxyl terminal Asp of EEIIMD substituted by Arg; control peptide]
[1]; LM-TK^− cells, FIG. 1A
  scuPA-binding-promoting activity relative to that of peptide EEIIMD: approximately 20%
[5]
  inhibition of PAI-1 activity: did not inhibit PAI-1 activity
